Reference: patent US8513462B2, “Pesticides and uses thereof” (Dow AgroSciences LLC, priority 2007, dated 2013)

Key:
[1] = test system: cotton aphid (Aphis gossypii); test: Insecticidal test for cotton aphid in foliar spray assay; format: in vivo; details: 72 h, foliar spray on squash, Corrected % Control (Abbott) after 3 days, read-out: Rating against cotton aphid on squash (foliar spray)
Protocol: (§1) The compounds identified in the foregoing examples were tested against cotton aphid using procedures described hereinafter. Insecticidal Test for Cotton Aphid (Aphis gossypii) in Foliar Spray Assay Squash seedlings with fully expanded cotyledon leaves were trimmed to one cotyledon per plant and infested with cotton aphid (wingless adults and nymphs) 1 day prior to chemical application. Each plant was examined before chemical application to ensure uniform infestation (ca. 30-70 aphids per plant). Compounds (2 mg) were dissolved in 2 ml of acetone:methanol (1:1) solvent, forming stock solutions of 1000 ppm. The stock solutions were diluted 5× with 0.025% Tween 20 in H2O to obtain a solution at 200 ppm. A hand-held Devilbiss aspirator type sprayer was used to apply the spray solutions until runoff to both sides of the squash cotyledon leaves. Four plants (4 replications) were used for each compound. Reference plants (solvent check) were sprayed with the diluent only. Treated plants were held in a holding room for 3 days at approximately 23° C. and 40% RH before the number of live aphids on each plant was recorded. Insecticidal activity was measured by Corrected % Control using Abbott's correction formula and presented in Table 1-Activity: Corrected % Control=100*(X−Y)/X • where X=No. of live aphids on solvent check plants • Y=No. of live aphids on treated plants Results are shown in Table 7. Insecticidal Test for Green Peach Aphid (Myzus persicae) in Foliar Spray Assay

[2] = test system: green peach aphid (Myzus persicae); test: Insecticidal test for green peach aphid in foliar spray assay; format: in vivo; details: 72 h, foliar spray on cabbage, Corrected % Control (Abbott) after three days, read-out: Rating against green peach aphid on cabbage (foliar spray)
Protocol: as §1, with “Squash” for “The compounds identified in the foregoing examples were tested against cotton aphid using procedures described hereinafter. Insecticidal Test for Cotton Aphid (Aphis gossypii) in Foliar Spray Assay Squash”, “Assay Cabbage seedlings grown in 3-inch pots, with 2-3 small (3-5 cm) true leaves, were used as test substrate. The seedlings were infested with 20-50 green peach aphids (wingless adult and nymph) 1-2 days prior to chemical application. Four seedlings were used for each treatment. Compounds (2 mg) were dissolved in 2 ml of acetone:methanol (1:1) solvent, forming stock solutions of 1000 ppm. The stock solutions were diluted 5× with 0.025% Tween 20 in H2O to obtain a solution at 200 ppm. A hand-held Devilbiss aspirator sprayer was used for spraying a solution to both sides of cabbage leaves until runoff. Reference plants (solvent check) were sprayed with the diluent only. Treated plants were held in a holding room for three days at approximately 23° C. and 40% RH prior to grading. Evaluation was conducted by counting the number of live aphids per plant under a microscope. Insecticidal activity was measured by using Abbott's correction formula: Corrected % Control=100*(X−Y)/X • where X=No. of live aphids on solvent check plants • Y=No. of live aphids on treated plants” for “Assay”

Structure (SMILES): CC(c1ccc(C(F)(F)F)nc1)S(C)(=O)=Nc1ccc(F)cn1 (stereo not shown) [Compound 1, 3-[1-ethyl(N-(2-(5-fluoro)pyridine)-sulfoximinyl)(methyl)]-6-trifluoromethylpyridine]
- pest or weed control at 200 ppm [1]: 80 to 100%
- pest or weed control at 200 ppm [2]: 80 to 100%

Structure (SMILES): CC(c1ccc(C(F)(F)F)nc1)S(C)(=O)=Nc1ccc(Cl)cn1 (stereo not shown) [Compound 2, 3-[1-ethyl(N-(2-(5-chloro)pyridine)-sulfoximinyl)(methyl)]-6-trifluoromethylpyridine]
- pest or weed control at 200 ppm [1]: 80 to 100%
- pest or weed control at 200 ppm [2]: 80 to 100%

Structure (SMILES): CC(c1ccc(C(F)(F)F)nc1)S(C)(=O)=Nc1ccccn1 (stereo not shown) [Compound 4, 3-[1-ethyl(N-(2-pyridine)-sulfoximinyl)(methyl)]-6-trifluoromethylpyridine]
- pest or weed control at 200 ppm [1]: 80 to 100%
- pest or weed control at 200 ppm [2]: < 80%

Structure (SMILES): CC(c1ccc(C(F)(F)F)nc1)S(C)(=O)=Nc1ncccn1 (stereo not shown) [Compound 5]
- pest or weed control at 200 ppm [1]: < 80%

Structure (SMILES): CC(c1ccc(C(F)(F)F)nc1)S(C)(=O)=Nc1nccs1 (stereo not shown) [Compound 6]
- pest or weed control at 200 ppm [1]: 80 to 100%
- pest or weed control at 200 ppm [2]: 80 to 100%

Structure (SMILES): CC(c1ccc(C(F)(F)F)nc1)S(C)(=O)=Nc1ccc([N+](=O)[O-])cn1 (stereo not shown) [Compound 7]
- pest or weed control at 200 ppm [1]: 80 to 100%
- pest or weed control at 200 ppm [2]: 80 to 100%

Structure (SMILES): CC(c1ccc(C(F)(F)F)nc1)S(C)(=O)=Nc1ccncc1 (stereo not shown) [Compound 8]
- pest or weed control at 200 ppm [1]: < 80%
- pest or weed control at 200 ppm [2]: < 80%

Structure (SMILES): CC(c1ccc(C(F)(F)F)nc1)S(C)(=O)=Nc1ccc(C(F)(F)F)cn1 (stereo not shown) [Compound 12]
- pest or weed control at 200 ppm [1]: < 80%

Structure (SMILES): CC(c1ccc(C(F)(F)F)nc1)S(C)(=O)=Nc1nc(Br)cs1 (stereo not shown) [Compound 13, 5-{1-[methyl(4-bromo-1,3-thiazol-2-yl)sulfonimidoyl]ethyl}-2-(trifluoromethyl)pyridine]
- pest or weed control at 200 ppm [1]: 80 to 100%
- pest or weed control at 200 ppm [2]: < 80%

Structure (SMILES): CC(c1ccc(C(F)(F)F)nc1)S(C)(=O)=Nc1cccc[n+]1[O-] (stereo not shown) [Compound 24, 3-[1-ethyl(N-(1-oxy-pyridin-2-e)-sulfoximinyl)(methyl)]-6-trifluoromethylpyridine]
- pest or weed control at 200 ppm [1]: 80 to 100%
- pest or weed control at 200 ppm [2]: < 80%

Structure (SMILES): CC(c1ccc(C(F)(F)F)nc1)S(C)(=O)=Nc1nc(C2CC2)cs1 (stereo not shown) [Compound 32]
- pest or weed control at 200 ppm [2]: < 80%
- melting point: 102 to 106 °C

Structure (SMILES): CC(c1ccc(C(F)(F)F)nc1)S(C)(=O)=Nc1nc(-c2cccnc2)cs1 (stereo not shown) [Compound 33]
- pest or weed control at 200 ppm [2]: 80 to 100%
- melting point: 178 to 182 °C

Structure (SMILES): CC(c1ccc(C(F)(F)F)nc1)S(C)(=O)=Nc1nc(-c2ccccn2)cs1 (stereo not shown) [Compound 35]
- pest or weed control at 200 ppm [2]: 80 to 100%
- melting point: 134 to 141 °C

Structure (SMILES): CC(c1ccc(C(F)(F)F)nc1)S(C)(=O)=Nc1nc(-c2ccc(Br)s2)cs1 (stereo not shown) [Compound 37]
- pest or weed control at 200 ppm [2]: 80 to 100%
- melting point: 160 to 165 °C

Structure (SMILES): CC(c1ccc(C(F)(F)F)nc1)S(C)(=O)=Nc1nc(-c2ccsc2)cs1 (stereo not shown) [Compound 38]
- pest or weed control at 200 ppm [2]: 80 to 100%
- melting point: 168 to 173 °C

Structure (SMILES): CC(c1ccc(C(F)(F)F)nc1)S(C)(=O)=Nc1nc(-c2nccs2)cs1 (stereo not shown) [Compound 39]
- pest or weed control at 200 ppm [2]: 80 to 100%
- melting point: 163 to 167 °C

Structure (SMILES): CC(c1ccc(C(F)(F)F)nc1)S(C)(=O)=Nc1nc(-c2ccc(Cl)s2)cs1 (stereo not shown) [Compound 41]
- pest or weed control at 200 ppm [2]: 80 to 100%
- melting point: 124 to 128 °C

Structure (SMILES): CC(c1ccc(C(F)(F)F)nc1)S(C)(=O)=Nc1nc(-c2ccc(C#N)cc2)cs1 (stereo not shown) [Compound 43]
- pest or weed control at 200 ppm [2]: 80 to 100%
- melting point: 78 to 80 °C

Structure (SMILES): COc1cccc(-c2csc(N=S(C)(=O)C(C)c3ccc(C(F)(F)F)nc3)n2)c1 (stereo not shown) [Compound 44]
- pest or weed control at 200 ppm [2]: 80 to 100%
- melting point: 107 to 110 °C

Structure (SMILES): CC(c1ccc(C(F)(F)F)nc1)S(C)(=O)=Nc1nc(-c2ccc(C(F)(F)F)cc2)cs1 (stereo not shown) [Compound 45]
- pest or weed control at 200 ppm [2]: 80 to 100%
- melting point: 124 to 127 °C

Structure (SMILES): CCOc1ccc(-c2csc(N=S(C)(=O)C(C)c3ccc(C(F)(F)F)nc3)n2)cc1 (stereo not shown) [Compound 46]
- pest or weed control at 200 ppm [2]: 80 to 100%
- melting point: 105 to 110 °C

Structure (SMILES): COc1ccc(-c2csc(N=S(C)(=O)C(C)c3ccc(C(F)(F)F)nc3)n2)cc1OC (stereo not shown) [Compound 48]
- pest or weed control at 200 ppm [2]: 80 to 100%
- melting point: 153 to 160 °C

Structure (SMILES): COc1ccccc1-c1csc(N=S(C)(=O)C(C)c2ccc(C(F)(F)F)nc2)n1 (stereo not shown) [Compound 51]
- pest or weed control at 200 ppm [2]: 80 to 100%
- melting point: 72 to 77 °C

Structure (SMILES): CC(c1ccc(C(F)(F)F)nc1)S(C)(=O)=Nc1nc(-c2ccc(OC(F)(F)F)cc2)cs1 (stereo not shown) [Compound 52]
- pest or weed control at 200 ppm [2]: 80 to 100%
- melting point: 90 to 95 °C

Structure (SMILES): COc1ccc(-c2csc(N=S(C)(=O)Cc3ccc(C(F)(F)F)nc3)n2)cc1 (stereo not shown) [Compound 54]
- pest or weed control at 200 ppm [2]: < 80%
- melting point: 158 to 161 °C

Structure (SMILES): CS(=O)(Cc1ccc(C(F)(F)F)nc1)=Nc1nc(C(F)(F)F)cs1 (stereo not shown) [Compound 55]
- pest or weed control at 200 ppm [2]: 80 to 100%
- melting point: 126 to 128 °C

Structure (SMILES): CCc1csc(N=S(C)(=O)Cc2ccc(C(F)(F)F)nc2)n1 (stereo not shown) [Compound 56]
- pest or weed control at 200 ppm [2]: 80 to 100%
- melting point: 114 to 116 °C

Structure (SMILES): CS(=O)(Cc1ccc(Cl)nc1)=Nc1nc(C(F)(F)F)cs1 (stereo not shown) [Compound 58]
- pest or weed control at 200 ppm [2]: 80 to 100%
- melting point: 122 to 125 °C

Structure (SMILES): CCc1csc(N=S(C)(=O)Cc2ccc(Cl)nc2)n1 (stereo not shown) [Compound 59]
- pest or weed control at 200 ppm [2]: 80 to 100%
- melting point: 114 to 116 °C

Structure (SMILES): CC(c1ccc(C(F)(F)F)nc1)S(C)(=O)=Nc1nc(-c2ccc(Br)cc2)co1 (stereo not shown) [Compound 75]
- pest or weed control at 200 ppm [2]: < 80%
- melting point: 134 to 137 °C

Structure (SMILES): CC(C)(C)c1csc(N=S2(=O)CCCC2c2ccc(Cl)nc2)n1 (stereo not shown) [Compound 76]
- pest or weed control at 200 ppm [2]: 80 to 100%
- melting point: 77 to 81 °C

Structure (SMILES): CCc1csc(N=S2(=O)CCCC2c2ccc(Cl)nc2)n1 (stereo not shown) [Compound 77]
- pest or weed control at 200 ppm [2]: 80 to 100%
- melting point: 67 to 71 °C

Structure (SMILES): COc1ccc(-c2csc(N=S3(=O)CCCC3c3ccc(Cl)nc3)n2)cc1 (stereo not shown) [Compound 78]
- pest or weed control at 200 ppm [2]: < 80%
- melting point: 88 to 94 °C
